In US12251422B2, “Compositions and methods for treating neurological and other disorders” (Rush University Medical Center, priority 2018, dated 2025):

What was measured:
[1] = biological target: T1, interaction between newly-formed cTLR2 and MyD88 (Mus musculus, UniProt Q9QUN7); assay: MyD88 immunoprecipitation / c-Myc western blot in BV-2 cells transduced with pLenti-cMyc-cTlr2; format: cell-based; conditions: transduced BV-2 cells, fibrillar Aβ1-42 for 1 h
T1 construct: The cTLR2 (640-784 amino acids) tagged with c-myc was cloned in lenti vector; expressed in transfected cells; host or cells: BV-2 microglial cells transduced with pLenti-cMyc-cTlr2 lentivirions

IL-1β and iNOS = assay: mRNA expression of IL-1β and iNOS in BV-2 microglial cells (RT-PCR, real-time PCR); format: cell-based; conditions: 10 μM peptide 1 h
Procedure: FIG. 4(A-S). Effect of wtTIDM and mTIDM peptides on the induction of NF-κB activation and the expression of proinflammatory molecules in microglial cells. BV-2 microglial cells preincubated with 10 μM wtTIDM/mTIDM peptides for 1 h were stimulated with 1 μM fibrillar Aβ1-42 (A-C), 1 μM MPP+ (D-F), 250 ng/ml LTA (G-I), […] LPS (J-L), 1 μM flagellin (M-O), and 1 μM CpG DNA (P-R) under serum-free condition. After 1 h of stimulation, the activation of NF-κB was monitored in nuclear extracts by EMSA (A, fibrillar Aβ; D, MPP+; G, LTA; J, LPS; M, flagellin, P; CpG DNA). After 4 h of stimulation, the mRNA expression of IL-1β (B, E, H, K, N, & Q) and iNOS (C, F, I, L, O, & R) was monitored by real-time PCR (B-C, fibrillar Aβ; E-F, MPP+; H-I, LTA; K-L, LPS; N-O, flagellin; Q-R, CpG DNA) (n=2 replicates/dose in 3 independent experiments). ap<0.001 vs control; bp<0.001 vs stimuli by two-sample t-tests. […]
FIG. 13 (A-F). […] After 4 h of stimulation, the mRNA expression of IL-1β and iNOS was monitored by RT-PCR (n=2 replicates/condition in 3 independent experiments).
FIG. 14 (A-D). […] A) After 1 h of stimulation, the activation of NF-κB was monitored in nuclear extracts by EMSA. […]
DNase-digested RNA was analyzed by real-time PCR in the AβI-Prism7700 sequence detection system (Applied Biosystems, Foster City, CA) as described earlier (23, 57).

5×FAD Tg mice = assay: Amyloid plaque / Aβ load in 5×FAD Tg mice; format: in vivo, mouse; conditions: 0.1 mg/kg body wt/2 d intranasal, 30 d
Procedure: FIG. 5 (A-Q). […] Actin was run as loading control. […] M) Hippocampal sections were immunolabeled with 82E1 mAb. […] Arrowhead indicates 4 kDa Aβ band.
FIG. 20 (A-B). Intranasal delivery of wtTIDM, but not mTIDM, peptide lowers the burden of amyloid plaques in the hippocampus of Tg mice. […] Actin was run as loading control. […] Results were analyzed by two-sample t-tests.
FIG. 21 (A-F). Intranasal delivery of wtTIDM, but not mTIDM, peptide reduces the levels of Aβ1-40 and Aβ1-42 in serum and hippocampus of Tg mice. […] After 30 d of treatment. ELISA quantification of Aβ1-40 (A, C & E) and Aβ1-42 (B, D & F) was performed in serum (A & B) and TBS (C & D) and (TBS+Triton X-100) (E & F) extracted hippocampal tissues. Six mice (n=6 per group) were used in two independent experiments. ap<0.01 & cp<0.001 versus non-Tg; bp<0.01 & dp<0.001 versus Tg by two-sample t-tests.
B6SJL-Tg (APPSwFlLon,PSEN1*M146L*L286V) 6799Vas/J transgenic (5×FAD or termed here as Tg) mice were purchased from Jackson Laboratories (Bar Harbor, ME). […] Briefly, TIDM peptides were dissolved in 5 μl normal saline, mice were hold in supine position and saline was delivered into one nostril using a pipetman.
Hippocampal tissues were homogenized in TBS, pelleted for 30 min×150,000 g. […]

Tg-Tlr2−/− mice = assay: Plaques and memory in 5×FAD mice null for Tlr2 (Tg-Tlr2−/−); format: in vivo, mouse; conditions: 0.1 mg/kg body wt/2 d intranasal, 30 d
Procedure: FIG. 24 (A-H). […] A) Tlr2−/− mice were bred with Tg (5×FAD mice) and representative PCR of Tlr2, App695 and Psen1 transgene DNA expression is shown for 6-month old non-Tg, Tg (5×FAD), Tg-Tlr2−/− (F7), and Tlr2−/− mice. Average body weight (B) and wet brain weight (C) of non-Tg, Tg, Tg-Tlr2−/−, and Tlr2−/− mice. For wet brain weight, the olfactory lobes and brainstem were removed. […] After 30 d of treatment, hippocampal sections were immunolabeled with 6E10 mAb (D). […] Mice were tested for Barnes maze (F, track plot; G, latency; H, number of errors made). Four mice (n=4) were used in each group. NS, not significant by two-sample t-tests.

T1 sequence (Q9QUN7 640-784): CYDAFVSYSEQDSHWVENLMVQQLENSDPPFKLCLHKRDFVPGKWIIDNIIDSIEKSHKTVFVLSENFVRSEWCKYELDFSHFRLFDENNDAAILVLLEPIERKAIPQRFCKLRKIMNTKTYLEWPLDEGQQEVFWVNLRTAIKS

Question: For `CC[C@H](C)[C@H](NC(=O)[C@H](CCCCN)NC(=O)[C@@H](NC(=O)[C@H](CCC(N)=O)NC(=O)[C@H](CCCNC(=N)N)NC(=O)[C@@H](N)CC(=O)O)[C@@H](C)CC)C(=O)N[C@@H](Cc1c[nH]c2ccccc12)C(=O)N[C@@H](Cc1ccccc1)C(=O)N[C@@H](CCC(N)=O)C(=O)N[C@@H](CC(N)=O)C(=O)N[C@@H](CCCNC(=N)N)C(=O)N[C@@H](CCCNC(=N)N)C(=O)N[C@@H](CCSC)C(=O)N[C@@H](CCCCN)C(=O)N[C@@H](Cc1c[nH]c2ccccc12)C(=O)N[C@@H](CCCCN)C(=O)N[C@@H](CCCCN)C(=O)N1CCC[C@H]1C(=O)NCC(=O)N[C@@H](C)C(=O)N[C@@H](Cc1c[nH]cn1)C(=O)N[C@@H](CCC(N)=O)C(=O)N[C@@H](CCCCN)C(=O)O` [wtTIDM, drqikiwfqnrrmkwkkPGAHQK], which “inhibition of interaction between newly-formed cTLR2 and MyD88” value [1] is on record?
Answer: inhibited

Question: And the “inhibition of expression of proinflammatory molecules (IL-1β, iNOS) induced by LTA” value (IL-1β and iNOS; 250 ng/ml LTA for 4 h)?
Answer: inhibited

Question: And the “inhibition of expression of proinflammatory molecules (IL-1β, iNOS) induced by fibrillar Aβ” value (IL-1β and iNOS; 1 μM fibrillar Aβ1-42 for 4 h)?
Answer: inhibited

Question: And the “Aβ (plaques, Western blot, ELISA of Aβ1-40 and Aβ1-42 in serum and hippocampus)” value (5×FAD Tg mice)?
Answer: significant decrease

Question: What about the “reduction of plaque load and improvement of spatial learning and memory in Tg-Tlr2−/− mice” value (Tg-Tlr2−/− mice) of the same compound?
Answer: remained unable to do so
